From article PMC12429880, “EGFR-Targeted Photodynamic Treatment of Triple Negative Breast Cancer Cell Lines Using Porphyrin–Peptide Conjugates: Synthesis and Mechanistic Insight” (Molecules, 2025) come the findings set out here.

The nature of data set [1]: Photostability (photobleaching) under irradiation. The class given is physicochemical. The text has this:
Compounds incorporating photosensitizing chromophores, such as tetrapyrrolic macrocycles, are susceptible to ROS-mediated photodegradation upon irradiation. Photostability of PSs is a critical parameter for achieving safe, effective, and precise PDT. It ensures sustained generation of ROS, minimizes the formation of potentially toxic or mutagenic degradation products, and preserves the structural and photophysical integrity of the PS during systemic circulation and tumor accumulation. High photostability is particularly important in delayed-activation protocols, enabling selective localization in target tissues. […] Thus, before assessing the photodynamic activity of the conjugates in TNBC cell lines, the photostability of 2 and conjugates 6, 7, and 8 was evaluated under the same conditions employed for the cell viability assays and the other biological studies reported in the present study. […]
To assess whether the peptide moiety underwent photoinduced degradation, samples of porphyrin 2 and its conjugates 6–8 were recovered and analyzed by HPLC at the end of the irradiation period.
For the chemical and biological analyses a 500 W tungsten white halogen lamp was used. […] The lamp has an irradiance of 22 mW/cm^2 (an average value determined between 380 and 780 nm with a Licor-1800 spectroradiometer, Li-COR, Bad Homburg, Germany), equating to 158 J/cm^2 of fluence over 2 h. […]

For data set [2], the system named is MCF7. Briefly: Intrinsic (dark) cytotoxicity, MTT assay without photoactivation. The class given is cell-based. As to conditions: no photoactivation, ten times the maximum PDT concentration (10 µM), mean ± SD of 5 independent experiments, in % (unit assumed). On the procedure:
(§1) The photodynamic effect of conjugates 6–8 on cell viability, compared to the reference compound 2, was evaluated using the MTT ([3-(4,5-dimethylthiazol-2-yl)-2,5-diphenyltetrazolium bromide]) assay. Briefly, 3.5 × 10^3 cells per well were seeded in 96-well plates and incubated for 48 h to allow for adherence and growth. Following this incubation period, cells were treated with increasing concentrations of the test compounds (ranging from 1 to 1000 nM), prepared in complete culture medium. All compound dilutions were prepared to ensure a final DMSO concentration of 0.1% (v/v), which is considered non-toxic. Control samples included cells cultured in complete medium alone, as well as a vehicle control treated with 0.1% DMSO in the absence of any compound (PS treatment was omitted). 24 h after treatment with PS, the medium was replaced with 1X PBS. Photoactivation was performed using a 500 W white tungsten halogen lamp, delivering an irradiance of 22 mW/cm^2, corresponding to a total fluence of 158 J/cm^2 over a 2 h irradiation period. To prevent thermal damage from the light source, a cooling system was employed by placing a circulating water filter between the lamp and the irradiation area to dissipate excess heat. Following irradiation, the PBS was replaced with fresh, PS-free culture medium, and cells were incubated at 37 °C. 24 h later, MTT was added to each well at a final concentration of 0.4 mg/mL, and cells were incubated for 3 h at 37 °C to allow the MTT metabolization in viable cells. The resulting formazan crystals were then dissolved in DMSO. Optical density was measured at 590 nm using an Infinite® 200 PRO plate reader (Tecan Life Sciences, Switzerland), and the resulting data were analyzed by non-linear regression using GraphPad PRISM 9.2.0 software (GraphPad Software Inc., San Diego, CA, USA), and IC50 values were extrapolated from these curves.
(§2) The potential intrinsic cytotoxicity of the compounds was assessed under identical experimental conditions, except that the photoactivation step was omitted. […]

The test system of data set [3] is MDA-MB231. The data set is described as above. It is filed as cell-based. As to conditions: no photoactivation, ten times the maximum PDT concentration (10 µM), mean ± SD of 5 independent experiments, in % (unit assumed). On the procedure:
as §1, §2

Data set [4] concerns MDA-MB453. The description is as above. As to conditions: no photoactivation, ten times the maximum PDT concentration (10 µM), mean ± SD of 5 independent experiments, in % (unit assumed). It is filed as cell-based. On the procedure: as §1, §2
Data set [5] has as its system MDA-MB231. Put plainly: Intracellular ROS generation (DCFH-DA). The class given is cell-based. As to conditions: 24 h at IC50, 2 h irradiation with 10 μM DCFH-DA, 3 independent experiments. On the procedure: (§3) Intracellular ROS generation was assessed using the fluorogenic probe 2′,7′-dichlorodihydrofluorescein diacetate (DCFH-DA; Invitrogen, Molecular Probes). Once internalized, DCFH-DA is hydrolyzed by intracellular esterases to form non-fluorescent dichlorodihydrofluorescein (DCFH), which ROS subsequently oxidizes to the highly fluorescent dichlorofluorescein (DCF). MDA-MB453 and MDA-MB231 cells were seeded in black 96-well plates and treated with the respective PSs at their IC50 concentrations for 24 h. Cells were then irradiated in the presence of 10 μM DCFH-DA. To quantify ROS production, fluorescence intensity was measured using a fluorescence microscope (excitation: 488 nm; emission: 520 nm). Quantitative analysis of fluorescence intensity, expressed in arbitrary fluorescence units, was performed using ImageJ software, version 1.53e, and normalized to untreated control samples.

For data set [6], the system named is MDA-MB453. Put plainly: Intracellular ROS generation (DCFH-DA). It is filed as cell-based. As to conditions: 24 h at IC50, 2 h irradiation with 10 μM DCFH-DA, 3 independent experiments. The method, then:
as §3

For `COC(=O)c1ccc(-c2c3nc(c([N+](=O)[O-])c4ccc([nH]4)c(-c4ccc(C(=O)OC)cc4)c4nc(cc5ccc2[nH]5)C=C4)C=C3)cc1` [compound 2, 10-Nitro-5,15-bis(4-carbomethoxyphenyl)porphyrin], in data set [1] (10 μM in PBS, 2 h exposure to 500 W tungsten-halogen lamp, 22 mW/cm^2, 158 J/cm^2, UV-Vis), the “Soret band intensity retained after irradiation” value was “approximately 90%”. In addition, in data set [1] (after 2 h irradiation with 500 W tungsten-halogen lamp, HPLC), the “HPLC analysis at the end of the irradiation period (structural integrity)” value was “No shifts in retention times were observed”. The results for the “Survival fraction (dark toxicity)” value in data set [2], in data set [3] and in data set [4] were 89.7 ± 1.16, 91.2 ± 1.26 and 90.8 ± 0.66, respectively. Besides, the “Intracellular ROS levels” value in data set [5] and in data set [6] was “higher levels of intracellular ROS” throughout.
